The numbers were not newly measured in patent US20080260785A1, “PAROXETINE COMPOSITIONS” (priority 2005, published 2008), which cites them from elsewhere.

SMILES strings stand for the structures.

The conditions of this data set: hydrochloride hemihydrate.

`Cl.Fc1ccc([C@@H]2CCNC[C@H]2COc2ccc3c(c2)OCO3)cc1` [Paroxetine, (−)-trans-4R-(4′-fluorophenyl)-3S-[(3′,4′-methylenedioxyphenoxy)methyl]piperidine]: the solubility in water was 5400 µg/mL.
